Test results reported in patent publication US9629830B2, “EphA4 inhibitors as neuroprotective agents” (The Hong Kong University of Science and Technology, priority 2013, dated 2017).

What was measured:
[1] = tested on: EphA4-dependent growth cone collapse in hippocampal neurons; test: EphA4-dependent (ephrin-A1-stimulated) growth cone collapse assay; format: cell-based, rat; details: for ephrin-A1-stimulated growth cone collapse: cultured hippocampal neurons
Protocol: Ephrin-A1-Fc was pre-clustered with goat anti-human Fc antibody (1:4.5)^24 and incubated at room temperature for 60 min before use. The growth cone collapse assay was performed in hippocampal neurons with ephrin-A1 0.1 μg/mL as described previously^61.
For EphA4 clustering, neurons were stained with anti-EphA4 and anti-Tau-1 antibodies. For the growth cone collapse assay, neurons were stained with Alexa Fluor 555-conjugated phalloidin (Molecular Probes) for filamentous actin and anti-Tau-1 antibody for axons. Collapsed growth cones were scored in a double-blinded manner. The experiments were repeated at least 3 times, and >50 neurons were analyzed for each experiment. Data are presented as mean±SEM.
To screen for small molecule EphA4 inhibitors, the inventors performed a molecular docking analysis using a small molecule library. […] Their ability in inhibiting EphA4 inhibiting the EphA4-dependent growth cone collapse using cultured hippocampal neurons was performed.

[2] = tested on: Aβ-induced reduction of neurotransmission in hippocampal neurons; test: mEPSC recording in Aβ-treated cultured hippocampal neurons; format: cell-based, rat
Protocol: Primary cortical and hippocampal neurons were prepared from embryonic day 18-19 rat embryos as described previously^24. Briefly, cortical neurons (6×10^6 per plate) were plated on 100-mm culture dishes coated with poly-D-lysine (12.5 μg/mL; Sigma). Rat hippocampal neurons were seeded on 18-mm coverslips coated with poly-D-lysine (50 μg/mL) at a density of 0.5×10^5/18-mm coverslip for immunocytochemical analysis, 0.1×10^5/18-mm coverslip for growth cone collapse assay, or 1×10^5 or 1.5×10^5/18-mm coverslip for mEPSC recording. Neurons were fed Neurobasal medium (Invitrogen) supplemented with 2% B27 (Invitrogen). Acute brain slices were prepared from P15-P17 Sprague-Dawley rats. Briefly, the rats were rapidly decapitated, and their brains were immersed in ice-cold artificial cerebrospinal fluid (ACSF). The hippocampus was dissected, and 300-μm-thick slices were prepared using a vibratome (Lieca). The slices were then transferred into an incubating chamber containing circulating ACSF equilibrated with 95% O2+5% CO2 and held at room temperature for at least 2 h for recovery prior to experiments^65.
For miniature EPSC recordings, hippocampal neurons at ˜25-28 DIV were co-treated with or without 500 nM Aβ together with the testing reagents for 24 h. Whole-cell patch-clamp recordings were made at room temperature with external solution containing (in mM) 110 NaCl, 5 KCl, 2 CaCl2, 0.8 MgCl2, 10 HEPES, and 10 D-glucose (pH 7.4) as well as an internal solution containing (in mM) 135 CsCl2, 10 HEPES, 2 MgCl2, 4 NaATP, 0.4 NaGTP, and 0.5 EGTA (pH 7.2)^24,27. Picrotoxin ([…]) was included in the external solution to block GABAergic IPSCs along with 0.5 μM TTX to prevent action potential-evoked EPSCs. For miniature EPSC recordings, cells were held at −70 mV. The pipette resistances for these experiments were typically 3-5 MΩ, while series resistances were 15-20 MΩ. The minis from each cell was recorded for 1 min in each condition. The measurement of mEPSC was according to that described in Mini Analysis Program for measuring AMPA receptor EPSCs (Synaptosoft Inc.). Only recording epochs in which series and input resistances varied <10% were analyzed. Data are presented as the mean±SEM of at least 3 experiments.

[3] = target: T1, extracellular domain of EphA4 (Homo sapiens, UniProt P54764); test: In vitro pull-down of recombinant EphA4-Fc with biotinylated Rhy on streptavidin beads; format: binding; details: western blot
T1 construct: purchased R&D Systems
Protocol: For the pull-down analysis, Bio-Rhy was bound to streptavidin magnetic beads for 1 h, the beads was then incubated with recombinant EphA4-Fc or EphB2-Fc in the presence of 0.5% BSA for 1 h. After incubation, the beads were washed 4 times with DPBS and the presence of Eph in the complex was determined by western blot analysis.

EphA4 [4] = target: EphA4 (Homo sapiens, UniProt P54764); test: Inhibition of EphA4 signaling (assay not specified)
EphA4 (HT-22 cells) = target: T2, EphA4 (HT-22 cells) (Mus musculus, UniProt Q03137); test: Cell-based binding of biotinylated ephrin-A1 to the surface of HT-22 cells; details: 10 min pre-incubation; Rhy 300 μM, KYL 100 μM (FIG. 10); biotinylated ephrin-A1 0.5 μg/mL
T2 construct: HT-22 cells, a cell line that expresses EphA4; endogenous in cells; host or cells: HT-22 cells
Protocol: HT-22 cells were seeded on poly-D-lysine coverslips. […] The cells were then fixed with 4% paraformaldehyde and then immunostained with Alexa Fluor 488-conjugated Streptavidin antibody (Molecular Probes) for surfacing labeling of biotinylated ephrin-A1.

EphA4 [5] = target: T3, EphA4 (Rattus norvegicus, UniProt D3ZZK3); test: Aβ-stimulated EphA4 tyrosine phosphorylation in acute hippocampal slices; format: cell-based; details: KYL 0.5 h pretreatment then Aβ 2 h
T3 construct: endogenous in cells; host or cells: primary rat cortical neurons (A5), primary rat hippocampal neurons (A7)
Protocol: Hippocampal synaptosomes were prepared as described previously^67. Acute hippocampal slices from P15-P17 rats were lysed in radioimmunoprecipitation assay (RIPA) buffer (1% Triton X-100, 1% sodium deoxycholate, 0.1% SDS, 150 mM NaCl, 10 mM sodium phosphate, 2 mM EDTA, and 0.2% sodium vanadate) with various protease inhibitors. For the Cdk5 kinase assay, cultured cortical neurons [16 days in vitro (DIV)] were lysed in lysis buffer A (20 mM Tris [pH 7.6], 150 mM NaCl, 1 mM EDTA, 1 mM EGTA, 1 mM NaF, and 0.5% Nonidet P-40) with various protease inhibitors. Western blot analysis was performed as described previously^24.
For the immunoprecipitation assay, lysates were immunoprecipitated with the corresponding antibody for 2 h at 4° C. followed by incubation with protein G Sepharose for 1 h at 4° C.^24. The samples were washed with RIPA buffer or buffer A and resuspended in SDS sample buffer. EphA4 tyrosine phosphorylation was detected by western blot analysis using 4G10 antibody.

[6] = tested on: Aβ-induced impairment of hippocampal LTP; test: HFS-induced LTP (fEPSP slope) in acute hippocampal slices treated with Aβ; format: cell-based, mouse
Protocol: Oligomeric Aβ (Aβ) was prepared as described previously^59,60. Briefly, 0.5 mg monomeric Aβ1-42 was dissolved in 22.2 μL dry DMSO and then diluted in ice-cold phenol-red free F-12 medium to yield a final Aβ concentration of 100 μM. The Aβ solution was incubated at 4° C. for 24 h and then centrifuged at 14,000×g for 10 min. The supernatant was frozen in liquid nitrogen and stored at −20° C. for up to 1 month. Unless specified, cultured neurons or hippocampal slices were typically treated with Aβ at 500 nM.
(§1) For LTP recordings, mouse brains were immediately dissected after sacrifice and soaked in ice-cold 95% O2/5% CO2 (aCSF)^58. Brain slices (300 μm thick) were prepared using a vibrating tissue slicer (HM650V; Thermo), and soaked in oxygenated buffer for 2 h at 32° C. The hippocampal regions were resected and placed at the center of a MED-P210A probe (Panasonic International Inc) with 64 embedded recording electrodes. The slices were then perfused with Aβ at 500 nM in oxygenated aCSF for 2 h before LTP induction^70. For treatment with EphA4 inhibitors, the slices were pretreated with peptides or chemicals for 1 h before application of Aβ. fEPSPs were recorded using a MED64 multichannel recording system, and the data were collected from the dendritic layer of area CA1 at a sampling rate of 10 kHz. For each slice, the baseline stimulus intensity was set at the level that elicited ˜50% of the maximum fEPSP response determined according to the input-output curve. LTP was induced by 3 trains of HFS (100 Hz, 1 s, delivered 30 s apart). The magnitude of LTP was quantified as a percentage change in the fEPSP slope (10%-90%) taken during the 60-min interval after LTP induction.

APP/PS1 mutant mice = test: HFS-induced hippocampal LTP in WT and APP/PS1 mice after in vivo treatment; parameters: species or system mouse; details: KYL infused by osmotic pump (17 μg, ~3 weeks)
Description: APP/PS1 double-transgenic mice were obtained from Jackson Laboratory (B6C3-Tg[APPswe, PSEN1dE9]85Dbo/J)^66. These mice were generated by incorporating a human/murine APP construct bearing the Swedish double mutation and the exon-9-deleted PSEN1 mutation (APPswe+PSEN1/dE9). APP transgenic mice (Tg2576) expressing a double mutant of human AβPP (Lys^670→Asn^670, Met^671→Leu^671) were also used^31. Both sexes were used for experiments, and all mice used in this study were produced by the Animal Care Facility of The Hong Kong University of Science and Technology. The genotype was confirmed by polymerase chain reaction analysis of tail biopsies. Four to five mice of the same sex were housed in a cage with food and water ad libitum with a 12-hour light/dark cycle.
To investigate the effect of blocking EphA4 signaling by KYL peptide in AD mice, 4-5-month-old AD transgenic mice were implanted with Alzet mini-osmotic pumps, model 1004, pumping its contents at 0.11 μL/h for 28 days. Pumps were loaded with either 0.23 μg/μL KYL peptide (17 μg) or vehicle solvent in artificial cerebrospinal fluid (CSF). The mini-osmotic pumps were adjusted intracerebroventricularly in the right hemisphere. EphA4 in the CA1 regions of APP/PS1 mice was knocked down by injecting vesicular stomatitis virus glycoprotein G-pseudotyped lentiviral particles with pFUGW-shEphA4 bilaterally into the corresponding regions as described previously^58.
as §1, with “The hippocampal regions were resected and placed at the center of a MED-P210A probe (Panasonic International Inc) with 64 embedded recording electrodes. The slices were then perfused with Aβ at 500 nM in oxygenated aCSF for 2 h before LTP induction^70.” left out, “LTP was induced by 3 trains of HFS (100 Hz, 1 s, delivered 30 s apart).” left out
WT and APP/PS1 mutant (Tg) mice were orally administered with corylin ([…]) by daily gavage for 3-4 weeks prior to LTP measurements. LTP induced by 3 trains of HFS (100 Hz for 1 s delivered 30 s apart) in the CA1 region of the SC pathway of the hippocampus was measured. The magnitude of LTP was quantified as the percentage change in the fEPSP slope (10-90%) taken during the 60-min interval after LTP induction.

[7] = tested on: Aβ-triggered reduction of dendritic spines in hippocampal neurons; test: Dendritic spine analysis in Aβ-treated hippocampal neurons; format: cell-based, rat
Protocol: Cultured rat hippocampal neurons were transfected with GFP plasmid at 14-16 DIV and exposed to Aβ at 24-28 DIV for 24 h after treatment with 30 μM KYL peptide. The neurons were fixed with 4% paraformaldehyde and examined using confocal microscopy using a 63× objective lens as previously described^24.

[8] = inhibitor (Cpd1 500 μM, Ros 10 μM) + Aβ, Aβ alone 818.1±28.2 ms
[9] = inhibitor alone (Cpd1 500 μM, Ros 10 μM), control 454.1±12.5 ms

T2 sequence (Q03137 20-986): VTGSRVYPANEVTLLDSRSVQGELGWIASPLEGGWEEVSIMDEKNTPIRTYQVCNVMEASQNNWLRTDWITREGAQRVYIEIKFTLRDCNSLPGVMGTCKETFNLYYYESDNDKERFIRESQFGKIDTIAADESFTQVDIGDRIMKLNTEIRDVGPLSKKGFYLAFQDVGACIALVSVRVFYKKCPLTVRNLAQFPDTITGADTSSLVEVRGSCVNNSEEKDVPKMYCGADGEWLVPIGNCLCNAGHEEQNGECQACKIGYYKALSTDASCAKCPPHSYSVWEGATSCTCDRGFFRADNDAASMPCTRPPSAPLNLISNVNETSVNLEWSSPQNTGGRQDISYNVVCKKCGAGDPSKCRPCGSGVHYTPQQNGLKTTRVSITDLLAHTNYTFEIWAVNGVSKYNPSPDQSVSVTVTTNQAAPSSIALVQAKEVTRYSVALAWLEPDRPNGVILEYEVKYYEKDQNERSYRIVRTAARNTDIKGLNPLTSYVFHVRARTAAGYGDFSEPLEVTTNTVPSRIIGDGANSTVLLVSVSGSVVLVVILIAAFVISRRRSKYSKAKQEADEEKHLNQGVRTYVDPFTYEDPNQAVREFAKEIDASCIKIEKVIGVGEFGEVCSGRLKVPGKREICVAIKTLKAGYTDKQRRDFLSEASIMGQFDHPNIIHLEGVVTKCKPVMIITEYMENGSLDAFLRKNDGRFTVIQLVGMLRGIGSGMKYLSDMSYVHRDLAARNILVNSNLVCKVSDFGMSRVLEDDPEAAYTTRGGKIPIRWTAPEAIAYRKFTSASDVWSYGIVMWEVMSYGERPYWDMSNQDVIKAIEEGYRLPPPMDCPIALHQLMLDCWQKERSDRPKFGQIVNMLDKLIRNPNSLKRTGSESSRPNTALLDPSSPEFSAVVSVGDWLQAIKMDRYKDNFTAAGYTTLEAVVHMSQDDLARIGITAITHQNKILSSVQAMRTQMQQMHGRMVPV
T1 sequence (P54764 20-547 limits assumed): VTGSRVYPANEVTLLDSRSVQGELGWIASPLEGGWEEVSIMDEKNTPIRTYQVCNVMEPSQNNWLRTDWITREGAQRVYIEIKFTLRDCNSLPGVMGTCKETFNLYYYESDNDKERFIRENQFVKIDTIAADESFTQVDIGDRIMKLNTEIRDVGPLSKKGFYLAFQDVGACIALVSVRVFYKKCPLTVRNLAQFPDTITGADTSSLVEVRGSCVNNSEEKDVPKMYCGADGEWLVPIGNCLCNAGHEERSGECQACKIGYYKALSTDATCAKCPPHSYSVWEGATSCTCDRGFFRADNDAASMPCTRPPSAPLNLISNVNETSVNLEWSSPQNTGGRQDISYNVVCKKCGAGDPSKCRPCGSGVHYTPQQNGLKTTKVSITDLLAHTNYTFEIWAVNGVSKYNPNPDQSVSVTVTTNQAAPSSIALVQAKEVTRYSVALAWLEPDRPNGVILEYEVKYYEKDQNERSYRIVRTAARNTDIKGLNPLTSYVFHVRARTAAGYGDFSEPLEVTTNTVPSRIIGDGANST
EphA4 (Homo sapiens, UniProt P54764), sequence (P54764 20-986, species assumed): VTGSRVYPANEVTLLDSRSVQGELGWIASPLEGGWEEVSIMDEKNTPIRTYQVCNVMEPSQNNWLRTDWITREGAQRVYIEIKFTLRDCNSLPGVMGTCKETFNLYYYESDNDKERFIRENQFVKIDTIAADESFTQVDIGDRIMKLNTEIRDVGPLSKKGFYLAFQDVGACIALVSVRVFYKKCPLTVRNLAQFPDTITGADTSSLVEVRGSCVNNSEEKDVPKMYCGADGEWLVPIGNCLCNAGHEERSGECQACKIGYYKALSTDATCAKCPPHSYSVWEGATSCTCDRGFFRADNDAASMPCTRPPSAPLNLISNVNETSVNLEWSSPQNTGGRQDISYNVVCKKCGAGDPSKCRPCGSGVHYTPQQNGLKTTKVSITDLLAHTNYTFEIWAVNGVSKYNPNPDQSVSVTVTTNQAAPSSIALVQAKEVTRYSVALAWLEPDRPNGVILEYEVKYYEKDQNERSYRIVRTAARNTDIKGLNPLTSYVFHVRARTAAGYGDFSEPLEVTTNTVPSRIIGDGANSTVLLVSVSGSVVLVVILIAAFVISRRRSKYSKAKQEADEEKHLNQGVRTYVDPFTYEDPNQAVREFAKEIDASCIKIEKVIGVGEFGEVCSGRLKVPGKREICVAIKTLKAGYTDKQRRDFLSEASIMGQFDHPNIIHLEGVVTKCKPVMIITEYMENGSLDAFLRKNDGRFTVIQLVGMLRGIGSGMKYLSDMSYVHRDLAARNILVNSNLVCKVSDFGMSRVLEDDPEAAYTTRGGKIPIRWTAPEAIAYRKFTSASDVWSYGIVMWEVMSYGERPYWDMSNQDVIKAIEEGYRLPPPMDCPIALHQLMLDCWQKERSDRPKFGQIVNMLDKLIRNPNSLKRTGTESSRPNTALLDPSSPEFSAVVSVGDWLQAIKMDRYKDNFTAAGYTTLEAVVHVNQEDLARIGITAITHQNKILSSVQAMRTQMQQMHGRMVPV
T3 sequence (D3ZZK3 20-986): as the sequence (Q03137 20-986) above, with S270T, K559Q, S874P counted along it

Compound: Cc1ccc(C)n1-c1ccc(C(=O)O)c(O)c1 [Cpd1, 2-hydroxy-4-(2,5-dimethyl-1-pyrrolyl)benzoic acid, reference compound]
- ephrin-A1-stimulated growth cone collapse [1]: also inhibited ephrin-A1-stimulated growth cone collapse
- concentration at which ephrin-A1-stimulated growth cone collapse is inhibited ([1]; data not shown): exceeding 10 μM
- mEPSC inter-event interval [2, 8]: 542.6 ± 15.4 ms
- mEPSC inter-event interval [2, 9]: 559.5 ± 16.6 ms

Compound: CCC1CN2CCC3(C(=O)N(CCCCCCNC(=O)CCCCC4SCC5NC(=O)NC54)c4ccccc43)C2CC1C(=COC)C(=O)OC (centres unmarked) [Bio-Rhy]
- binding to the extracellular domain of EphA4 (pull-down, words) [3]: bound specifically to the extracellular domain of EphA4

Compound: CC[C@H]1CN2CC[C@@]3(C(=O)Nc4ccccc43)[C@@H]2C[C@@H]1/C(=C\OC)C(=O)OC [IsoRhy, isorhynchophylline]
- inhibition of EphA4 signaling (EphA4 [4]): inactive in inhibiting EphA4 signaling

Compound: CC(C)[C@@H]1[C@H]2OC(=O)[C@@H]1[C@@H]1CC[C@@H]3CN(C)[C@H]2[C@@]31C [Dendrobine, dendrobine]
- ephrin-A1-stimulated growth cone collapse [1]: inhibited ephrin-A1-stimulated growth cone collapse

Compound: CC[C@H](CO)Nc1nc(NCc2ccccc2)c2ncn(C(C)C)c2n1 [Ros, roscovitine]
- mEPSC inter-event interval [2, 8]: 494.1 ± 11.7 ms
- mEPSC inter-event interval [2, 9]: 451.0 ± 11.2 ms

Compound: KYLPYWPVLSSL [KYL peptide, reference compound]
- binding of ephrin-A1 to HT-22 cells (EphA4 (HT-22 cells)): reduced the binding of ephrin-A1 to HT-22 cells
- Aβ-stimulated tyrosine phosphorylation of EphA4 (EphA4 [5]): abolished the Aβ-stimulated tyrosine phosphorylation of EphA4
- mean fEPSP slope, last 10 min after LTP induction ([6]; KYL peptide 100 μM + Aβ, Aβ alone 132±6.06%): 174.9±9.0%
- mean fEPSP slope, last 10 min after LTP induction ([6]; KYL peptide 100 μM alone, control 169±6.72%): 164.6±5.7%
- mean fEPSP slope, last 10 min after LTP induction (APP/PS1 mutant mice; APP/PS1 (Tg) mice, Tg Con 154.0±8.2%): 181.9±8.6%
- mean fEPSP slope, last 10 min after LTP induction (APP/PS1 mutant mice; WT mice, WT Con 191.8±9.5%): 190.1±6.9%
- dendritic spine density ([7]; KYL peptide alone (30 μM), control 0.66±0.1/μm): 0.55±0.13 /μm
- dendritic spine density ([7]; co-treatment of Aβ (24 h) and KYL peptide (30 μM), Aβ alone 0.46±0.21/μm): 0.61±0.18 /μm
